Test results published in ChEMBL document CHEMBL5104189, “Piptide Chemotypes for Perturbation of the Interaction of Urokinase with Its Receptor” (J Med Chem, 2022).
Activity calls are given as the source filed them. The rule behind the calls is not given here.

Columns and labels:
[1] = target: T1, Urokinase-type plasminogen activator/surface receptor (Homo sapiens, UniProt P00749+Q03405); experiment: Inhibition of uPAR/uPA (unknown origin) interaction by ELISA; assay type: protein assay
[2] = target: T1, Urokinase-type plasminogen activator/surface receptor; experiment: Inhibition of uPAR/uPA (unknown origin) interaction assessed as dissociation constant by fluorescence polarization (FP) assay; assay type: protein assay
MDA-MB-231 [3] = experiment: Antimigratory activity in human MDA-MB-231 cells assessed as scratch closure speed at 5 to 50 uM by scratch wound healing assay; assay type: functional, cell-based; conditions: dose 5-50 µM
MDA-MB-231 [4] = experiment: Anti-invasive activity in human MDA-MB-231 cells assessed as relative invasion at 5 to 50 uM by scratch wound healing assay; assay type: functional, cell-based; conditions: dose 5-50 µM
MDA-MB-231 [5] = experiment: Antimigratory activity in human MDA-MB-231 cells assessed as relative migration at 5 to 50 uM by scratch wound healing assay; assay type: functional, cell-based; conditions: dose 5-50 µM

Compound | IC50 [1] [µM] | Ki [2] [µM] | Activity (MDA-MB-231 [3]) | Activity (MDA-MB-231 [4]) | Activity (MDA-MB-231 [5])
Cc1ccc(N2C(=O)C(O)=C(C(=O)c3ccc(Cl)cc3)C2c2cccc(F)c2)cc1Br (centres undefined) | 18.4 | 0.7 |  |  | 
CC[C@H](C)[C@@H](C(N)=O)n1cc([C@@H](CO)NC(=O)N2CCN([C@@H](CO)C(=O)N3CCN([C@@H](CCCCN)C(=O)O)CC3)CC2)nn1 | 2.85 | 2.56 |  |  | 
NC(=O)C[C@H](C(=O)N1CCN([C@H](CO)C(N)=O)CC1)N1CCN(C(=O)[C@H](N)Cc2ccccc2)CC1 | 14.7 | 13.2 |  |  | 
Cc1cccc2c(C(=O)N3CCN(c4c(C)n(C)c(=O)n(C)c4=O)CC3)cc(-c3ccccc3)nc12 | 15.5 | 2.5 |  |  | 

Second part, led by results:

IC50 [1] [µM] | Ki [2] [µM] | Compound | Activity (MDA-MB-231 [3]) | Activity (MDA-MB-231 [4]) | Activity (MDA-MB-231 [5])
3.06 | 2.75 | NCCCC[C@H](C(=O)N1CCN([C@H](Cc2ccccc2)C(N)=O)CC1)N1CCN(C(=O)[C@H](N)CO)CC1 | Active | Active | 
2.45 | 2.2 | NCCCC[C@H](C(=O)N1CCN([C@@H](CO)C(N)=O)CC1)n1cc([C@@H](Cc2ccccc2)N2C(=O)N[C@@H](CO)C2=O)nn1 |  |  | Active
8.35 | 7.5 | CC[C@H](C)[C@@H](C(N)=O)n1cc([C@@H](CO)N2C(=O)N[C@@H](Cc3ccccc3)C2=O)nn1 |  |  | 
3.06 | 6.2 | NCCCC[C@H](C(=O)N1CCN([C@@H](Cc2ccccc2)C(N)=O)CC1)N1CCN(C(=O)[C@H](N)CO)CC1 |  |  | 
